PubChem BioAssay AID2060495 (Molecular Pharmacology Branch, DTP, NCI, 2025)

Tested on: 521955-158-R2-J5-PDC complex spheroid viability
Assay: Anticancer human tumor 521955-158-R2-J5-PDC patient-derived pancreatic carcinoma cell line growth inhibition [GQUAD]
Conditions: for IC50: curve of first compound; for viability, T/C: stronger effect = lower value
Procedure, shortened: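 Multi-cell-type spheroids of tumor cells with HUVEC and mesenchymal stem cells, treated with drug combinations. Concentrations descend in half-log steps from near clinical Cmax, or from 10 microM where Cmax is unknown; viability read-out.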

[1] = second compound 0.0316 µM, first compound 0.0316 µM
[2] = second compound 0.0316 µM, first compound 0.1 µM
[3] = second compound 0.0316 µM, first compound 0.316 µM
[4] = second compound 0.0316 µM, first compound 1 µM
[5] = second compound 0.0316 µM, first compound 3.16 µM
[6] = second compound 0.0316 µM, first compound 10 µM
[7] = second compound 0.1 µM, first compound 0.0316 µM
[8] = second compound 0.1 µM, first compound 0.1 µM
[9] = second compound 0.1 µM, first compound 0.316 µM
[10] = second compound 0.1 µM, first compound 1 µM
[11] = second compound 0.1 µM, first compound 3.16 µM
[12] = second compound 0.1 µM, first compound 10 µM
[13] = second compound 0.316 µM, first compound 0.0316 µM
[14] = second compound 0.316 µM, first compound 0.1 µM
[15] = second compound 0.316 µM, first compound 0.316 µM
[16] = second compound 0.316 µM, first compound 1 µM
[17] = second compound 0.316 µM, first compound 3.16 µM
[18] = second compound 0.316 µM, first compound 10 µM
[19] = second compound 1 µM, first compound 0.0316 µM
[20] = second compound 1 µM, first compound 0.1 µM
[21] = second compound 1 µM, first compound 0.316 µM
[22] = second compound 1 µM, first compound 1 µM
[23] = second compound 1 µM, first compound 3.16 µM
[24] = second compound 1 µM, first compound 10 µM
[25] = second compound 3.16 µM, first compound 0.0316 µM
[26] = second compound 3.16 µM, first compound 0.1 µM
[27] = second compound 3.16 µM, first compound 0.316 µM
[28] = second compound 3.16 µM, first compound 1 µM
[29] = second compound 3.16 µM, first compound 3.16 µM
[30] = second compound 3.16 µM, first compound 10 µM
[31] = second compound 10 µM, first compound 0.0316 µM
[32] = second compound 10 µM, first compound 0.1 µM
[33] = second compound 10 µM, first compound 0.316 µM
[34] = second compound 10 µM, first compound 1 µM
[35] = second compound 10 µM, first compound 3.16 µM
[36] = second compound 10 µM, first compound 10 µM
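Also: spheroids exposed to agents for one week before reading.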
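For viability, T/C in this document: 100% = DMSO vehicle control viability.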

Cc1cccc(N(C)C(=O)C2C(O)CCN2c2nc(C)cc(C(F)(F)F)c2C#N)c1 (stereo unspecified) + Cc1cnc(CNC(=O)c2c(=O)c3ccc(N4CCCN(C)CC4)nc3n3c2sc2ccccc23)cn1
IC50 (second compound 0.0316 µM): > 10000 nM
IC50 (second compound 0.1 µM): > 10000 nM
IC50 (second compound 0.316 µM): < 31.6 nM
IC50 (second compound 1 µM): < 31.6 nM
IC50 (second compound 3.16 µM): < 31.6 nM
IC50 (second compound 10 µM): < 31.6 nM
viability, T/C [1]: 96.8%
viability, T/C [2]: 75%
viability, T/C [3]: 92.8%
viability, T/C [4]: 78.9%
viability, T/C [5]: 101%
viability, T/C [6]: 89.6%
viability, T/C [7]: 54.9%
viability, T/C [8]: 66.2%
viability, T/C [9]: 71.5%
viability, T/C [10]: 62.2%
viability, T/C [11]: 88.7%
viability, T/C [12]: 74.6%
viability, T/C [13]: 43.7%
viability, T/C [14]: 49.9%
viability, T/C [15]: 40.9%
viability, T/C [16]: 43.7%
viability, T/C [17]: 46.5%
viability, T/C [18]: 38.2%
viability, T/C [19]: 23.6%
viability, T/C [20]: 22.5%
viability, T/C [21]: 22.7%
viability, T/C [22]: 24.4%
viability, T/C [23]: 20.9%
viability, T/C [24]: 22.9%
viability, T/C [25]: 19.1%
viability, T/C [26]: 22.3%
viability, T/C [27]: 19.8%
viability, T/C [28]: 22.8%
viability, T/C [29]: 20.6%
viability, T/C [30]: 20.1%
viability, T/C [31]: 20.7%
viability, T/C [32]: 19.2%
viability, T/C [33]: 21.5%
viability, T/C [34]: 20.2%
viability, T/C [35]: 24.7%
viability, T/C [36]: 20.2%

Cn1ncnc1[C@H]1c2n[nH]c(=O)c3cc(F)cc(c23)N[C@@H]1c1ccc(F)cc1 + Cc1cnc(CNC(=O)c2c(=O)c3ccc(N4CCCN(C)CC4)nc3n3c2sc2ccccc23)cn1
IC50 (second compound 0.0316 µM): > 316 nM
IC50 (second compound 0.1 µM): 316 nM
IC50 (second compound 0.316 µM): < 0.999 nM
IC50 (second compound 1 µM): < 0.999 nM
IC50 (second compound 3.16 µM): < 0.999 nM
IC50 (second compound 10 µM): < 0.999 nM
viability, T/C (second compound 0.0316 µM, first compound 0.000999 µM): 85.8%
viability, T/C (second compound 0.0316 µM, first compound 0.00316 µM): 70.8%
viability, T/C (second compound 0.0316 µM, first compound 0.00999 µM): 67.1%
viability, T/C [1]: 62%
viability, T/C (second compound 0.0316 µM, first compound 0.0999 µM): 53.9%
viability, T/C [3]: 57.5%
viability, T/C (second compound 0.1 µM, first compound 0.000999 µM): 62.3%
viability, T/C (second compound 0.1 µM, first compound 0.00316 µM): 77.7%
viability, T/C (second compound 0.1 µM, first compound 0.00999 µM): 54.8%
viability, T/C [7]: 48.2%
viability, T/C (second compound 0.1 µM, first compound 0.0999 µM): 54.2%
viability, T/C [9]: 55.5%
viability, T/C (second compound 0.316 µM, first compound 0.000999 µM): 44.1%
viability, T/C (second compound 0.316 µM, first compound 0.00316 µM): 48.6%
viability, T/C (second compound 0.316 µM, first compound 0.00999 µM): 44.7%
viability, T/C [13]: 34.2%
viability, T/C (second compound 0.316 µM, first compound 0.0999 µM): 31.3%
viability, T/C [15]: 24.3%
viability, T/C (second compound 1 µM, first compound 0.000999 µM): 26.8%
viability, T/C (second compound 1 µM, first compound 0.00316 µM): 25.1%
viability, T/C (second compound 1 µM, first compound 0.00999 µM): 23.1%
viability, T/C [19]: 20%
viability, T/C (second compound 1 µM, first compound 0.0999 µM): 21%
viability, T/C [21]: 16.6%
viability, T/C (second compound 3.16 µM, first compound 0.000999 µM): 16%
viability, T/C (second compound 3.16 µM, first compound 0.00316 µM): 19.6%
viability, T/C (second compound 3.16 µM, first compound 0.00999 µM): 20.8%
viability, T/C [25]: 20.4%
viability, T/C (second compound 3.16 µM, first compound 0.0999 µM): 15.3%
viability, T/C [27]: 14%
viability, T/C (second compound 10 µM, first compound 0.000999 µM): 20.7%
viability, T/C (second compound 10 µM, first compound 0.00316 µM): 15.7%
viability, T/C (second compound 10 µM, first compound 0.00999 µM): 21.8%
viability, T/C [31]: 19.8%
viability, T/C (second compound 10 µM, first compound 0.0999 µM): 15.7%
viability, T/C [33]: 17.2%

O=C(c1cc(Cc2n[nH]c(=O)c3ccccc23)ccc1F)N1CCN(C(=O)C2CC2)CC1 + Cc1cnc(CNC(=O)c2c(=O)c3ccc(N4CCCN(C)CC4)nc3n3c2sc2ccccc23)cn1
IC50 (second compound 0.0316 µM): > 10000 nM
IC50 (second compound 0.1 µM): 2860 nM
IC50 (second compound 0.316 µM): < 31.6 nM
IC50 (second compound 1 µM): < 31.6 nM
IC50 (second compound 3.16 µM): < 31.6 nM
IC50 (second compound 10 µM): < 31.6 nM
viability, T/C [1]: 83.5%
viability, T/C [2]: 56%
viability, T/C [3]: 77.1%
viability, T/C [4]: 64.4%
viability, T/C [5]: 75.4%
viability, T/C [6]: 59.7%
viability, T/C [7]: 60.3%
viability, T/C [8]: 63.5%
viability, T/C [9]: 59.7%
viability, T/C [10]: 52.9%
viability, T/C [11]: 51.8%
viability, T/C [12]: 32.5%
viability, T/C [13]: 35.1%
viability, T/C [14]: 50%
viability, T/C [15]: 37.9%
viability, T/C [16]: 36.9%
viability, T/C [17]: 30.8%
viability, T/C [18]: 24.1%
viability, T/C [19]: 18%
viability, T/C [20]: 19.9%
viability, T/C [21]: 22.8%
viability, T/C [22]: 23.9%
viability, T/C [23]: 21.1%
viability, T/C [24]: 16.1%
viability, T/C [25]: 16.6%
viability, T/C [26]: 19.6%
viability, T/C [27]: 21.1%
viability, T/C [28]: 15.9%
viability, T/C [29]: 16.5%
viability, T/C [30]: 13.9%
viability, T/C [31]: 21.2%
viability, T/C [32]: 18.9%
viability, T/C [33]: 18.1%
viability, T/C [34]: 18.2%
viability, T/C [35]: 16.7%
viability, T/C [36]: 12.1%
